Test systems include COLO 205 colon; A498 renal; SK-MEL-5 melanoma; HS 578T breast; NCI-H226 lung; SF-268 CNS; HCC-2998 colon; A549 NSCLC.
Common to all, as to assay: growth of human tumour cells (NCI), 48 h

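Briefly, cells in 96-well plates were exposed to five compound concentrations for 48 h, and endpoints were estimated by linear interpolation. The concentration for 50% growth inhibition is given as GI50. TGI denotes the concentration required for complete inhibition of growth.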 Bounds are passed on as bounds.

This is an account of results in PubChem BioAssay (NCI).

For the compound `O=c1oc2c(cc1-c1ccccc1)C(O)Oc1ccccc1-2` (stereo not given), the GI50 in the assay on COLO 205 colon was 7.72 µM; with A498 renal, 7.98 µM; in the assay on SK-MEL-5 melanoma, 3.8 µM; in the assay with HS 578T breast, 13.4 µM; with NCI-H226 lung, 28.8 µM; in the assay on SF-268 CNS, 16.3 µM. The GI50 with HCC-2998 colon was 3.55 µM; with A549 NSCLC, 7.84 µM. Moreover, the TGI is 25.9 µM in the assay on COLO 205 colon; 44.7 µM in the assay with A498 renal; 16.5 µM in the assay on SK-MEL-5 melanoma; greater than 100 µM in the assay on HS 578T breast; greater than 100 µM with NCI-H226 lung; 83.6 µM in the assay on SF-268 CNS. Further, the TGI with HCC-2998 colon amounted to 19.3 µM; with A549 NSCLC, 95.8 µM.
For `CN(N=O)C(=O)Nc1ccc(C(=O)O)cc1`, the TGI in the assay with COLO 205 colon, in the assay with A498 renal, in the assay on SK-MEL-5 melanoma, with HS 578T breast, in the assay on NCI-H226 lung and in the assay with SF-268 CNS was greater than 100 µM throughout. In addition, the TGI with HCC-2998 colon and with A549 NSCLC was greater than 100 µM in each case.
On to `CNC1=CC(=O)C2=C(C1=O)C1C3=C(C(=O)C(Br)=C(OC)C3=O)C2c2ccccc21` (stereo not given), for which the GI50 was 9.89 µM in the assay with COLO 205 colon; 5.46 µM in the assay on SK-MEL-5 melanoma; 2.72 µM with HS 578T breast; 6.66 µM in the assay on NCI-H226 lung; 1.87 µM in the assay on SF-268 CNS; 20.6 µM in the assay on A549 NSCLC. In addition, the TGI was 22 µM in the assay on COLO 205 colon; 16.9 µM with SK-MEL-5 melanoma; 22.1 µM with HS 578T breast; 14.7 µM in the assay with NCI-H226 lung; 10.3 µM with SF-268 CNS; greater than 50 µM in the assay on A549 NSCLC.
On to `OCC#CCCCCOCC#Cc1ccccc1C#CCOCCCCC#CCO`, for which the GI50 in the assay on COLO 205 colon was 27.1 µM; in the assay with A498 renal, 4.35 µM; in the assay with SK-MEL-5 melanoma, 15.1 µM; in the assay with HS 578T breast it was 25 µM; with NCI-H226 lung, 23.7 µM; in the assay with SF-268 CNS, 37.4 µM. Further, the GI50 with A549 NSCLC was 39.8 µM. For the same compound, the TGI in the assay on COLO 205 colon is greater than 100 µM; in the assay on A498 renal, 34.3 µM; with SK-MEL-5 melanoma it was 30.5 µM; with HS 578T breast, 65.4 µM; in the assay on NCI-H226 lung it was 59 µM; in the assay on SF-268 CNS, greater than 100 µM. Besides, in the assay on A549 NSCLC, the TGI was greater than 100 µM.
As for `CNC(C)[C@H]1CCC2C3CCC4C[C@@H](N(C)C(=O)c5ccccc5)CC[C@]4(C)C3CC[C@@]21C` (stereo not given in full), the GI50 in the assay on COLO 205 colon was 1.15 µM; in the assay with A498 renal, 1.65 µM; with SK-MEL-5 melanoma it was 0.613 µM; in the assay on HS 578T breast it was 1.34 µM; in the assay with NCI-H226 lung, 2.01 µM; in the assay with SF-268 CNS, 1.16 µM. The GI50 is 1.63 µM in the assay on HCC-2998 colon and 2.31 µM in the assay on A549 NSCLC. For the same compound, the TGI was determined as 2.52 µM in the assay with COLO 205 colon; 10.2 µM in the assay on A498 renal; 2.02 µM with SK-MEL-5 melanoma; 3.94 µM in the assay with HS 578T breast; 12.9 µM with NCI-H226 lung; 3.21 µM in the assay on SF-268 CNS. Besides, the figures for the TGI in the assay with HCC-2998 colon and in the assay with A549 NSCLC were 4.8 µM and 7.29 µM, respectively.
For `Oc1c(Cl)cc(CN(Cc2cc(Cl)c(O)c(Cl)c2)C2CCCCC2)cc1Cl`, the TGI in the assay on COLO 205 colon, with A498 renal, in the assay on SK-MEL-5 melanoma, with HS 578T breast, with SF-268 CNS and in the assay with A549 NSCLC was greater than 100 µM in each case.
As to `C[n+]1cc2cc3c(cc2c2ccccc21)OCO3`, the GI50 was 4.48 µM with COLO 205 colon; 1.05 µM in the assay on A498 renal; 2.71 µM with SK-MEL-5 melanoma; 2 µM in the assay on HS 578T breast; 2.4 µM in the assay on NCI-H226 lung; 0.48 µM with SF-268 CNS. For the same compound, the GI50 with HCC-2998 colon was 3.81 µM; in the assay on A549 NSCLC, 2.41 µM. In addition, the TGI in the assay on COLO 205 colon worked out at 24 µM; with A498 renal, 8.57 µM; with SK-MEL-5 melanoma it was 14.3 µM; in the assay on HS 578T breast, 7.71 µM; in the assay on NCI-H226 lung, 32.2 µM; in the assay on SF-268 CNS, 2.57 µM. Further, the figures for the TGI in the assay with HCC-2998 colon and in the assay with A549 NSCLC were 19.2 µM and 14.4 µM, respectively.
For the compound `C/C(=C1/N=C(c2ccccc2)OC1=O)c1ccccc1`, the TGI with COLO 205 colon, in the assay on A498 renal, in the assay with SK-MEL-5 melanoma, in the assay on HS 578T breast, in the assay with NCI-H226 lung and in the assay with SF-268 CNS was greater than 100 µM in each case. Further, the TGI in the assay with HCC-2998 colon and in the assay on A549 NSCLC was greater than 100 µM each time.
Take `COc1cc2oc(-c3cccc(C(=O)Nc4ccc(C)cc4)c3)cc(=O)c2c(OC)c1OC`: the GI50 in the assay with COLO 205 colon is 1.05 µM; in the assay with SK-MEL-5 melanoma, 1.03 µM; in the assay on HS 578T breast it was 4.61 µM; in the assay on NCI-H226 lung, 6.65 µM; in the assay on SF-268 CNS, 5.61 µM; in the assay with HCC-2998 colon, 3.53 µM. Also, in the assay with A549 NSCLC, the GI50 is 3.86 µM. The TGI is 2.6 µM with COLO 205 colon; 2.42 µM with SK-MEL-5 melanoma; greater than 100 µM with HS 578T breast; greater than 100 µM in the assay with NCI-H226 lung; greater than 100 µM in the assay on SF-268 CNS; 17.8 µM with HCC-2998 colon. In the assay on A549 NSCLC, this compound showed a TGI greater than 100 µM.
For the compound `CC(=O)Oc1ccccc1C(=O)NCCC[Se]C#N`, the GI50 in the assay with COLO 205 colon was 12.8 µM; in the assay with A498 renal, 2.1 µM; in the assay on HS 578T breast, 2.12 µM; in the assay on NCI-H226 lung it was 2.06 µM; with SF-268 CNS, 1.84 µM; in the assay on HCC-2998 colon, 3.54 µM. Moreover, the GI50 in the assay with A549 NSCLC is 1.84 µM. For the same compound, the TGI with COLO 205 colon was 29.9 µM; in the assay with A498 renal, 4.08 µM; in the assay with HS 578T breast it was 6.8 µM; in the assay with NCI-H226 lung it was 5.62 µM; in the assay with SF-268 CNS it was 4.06 µM; in the assay with HCC-2998 colon, 14.9 µM. In the assay with A549 NSCLC, this compound showed a TGI of 3.6 µM.
Regarding `CC(=O)N1N=C(c2ccc(Nc3nc(Nc4ccc(F)cc4)nc(Nc4ccc(Cl)cc4)n3)cc2)CC1c1ccc(N(C)C)cc1` (stereo not given), the GI50 in the assay on COLO 205 colon was 1.81 µM; in the assay on A498 renal it was 14.4 µM; in the assay with SK-MEL-5 melanoma, 6.68 µM; in the assay on HS 578T breast, 8.09 µM; in the assay with NCI-H226 lung, 4.91 µM; in the assay on SF-268 CNS, 12.1 µM. For the same compound, the figures for the GI50 in the assay with HCC-2998 colon and in the assay with A549 NSCLC were 2.26 µM and 4.27 µM, respectively. Moreover, the TGI with COLO 205 colon was 5.9 µM; in the assay with A498 renal, 50.5 µM; with SK-MEL-5 melanoma, 19.3 µM; in the assay on HS 578T breast, 97.9 µM; with NCI-H226 lung it was 28 µM; with SF-268 CNS it was 49.2 µM. For the same compound, the figures for the TGI in the assay on HCC-2998 colon and in the assay with A549 NSCLC were 7.45 µM and 43 µM, respectively.
